Each compound was assayed on phospho-serine 2056 DNA-PK in HCT116 cells (assay: DNA-PK phosphorylation at serine 2056 (cellular), ELISA in bleomycin-treated HCT116 cells). Conditions: Homo sapiens, HCT-116, 6 h, cellular; HCT116 cells, 10 μM bleomycin, six hours; read-out: IC50 pDNA-PK.
Format: cell-based
How it was run: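 Chemiluminescent ELISA quantified DNA-PK Ser2056 phosphorylation relative to total DNA-PKcs in HCT116 cells. Cells received compounds together with 10 μM bleomycin for 6 h; DMSO served as blank.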

IC50 | Compound
< 0.5 µM | OC(c1ccc(F)c(-c2ncnc3cc(N4CCOCC4)ccc23)c1)c1c(F)cncc1Cl (centres unmarked) [Example 77, (3-Chloro-5-fluoro-pyridin-4-yl)-[4-fluoro-3-(7-morpholin-4-yl-quinazolin-4-yl)phenyl]-methanol]
10 to 30 µM | CN(C)C(=O)c1ccc(C(O)c2cc(-c3ncnc4cc(N5CCOCC5)ccc34)c(F)cc2Cl)nn1 (centres unmarked) [Example 50, 6-{[2-Chloro-4-fluoro-5-(7-morpholin-4-yl-quinazolin-4-yl)phenyl]-hydroxymethyl}-pyridazine-3-carboxylic acid dimethylamide]
< 0.5 µM | O[C@H](c1ccc(F)c(-c2ncnc3cc(N4CCOCC4)ccc23)c1)c1nccnc1Cl [Example 27, (R)-(3-Chloro-pyrazin-2-yl)-[4-fluoro-3-(7-morpholin-4-yl-quinazolin-4-yl)phenyl]-methanol]
< 0.5 µM | COc1cc(C(O)c2ccc(F)c(-c3ncnc4cc(N5CCOCC5)ccc34)c2)c(Cl)nn1 (centres unmarked) [Example 7, (3-Chloro-6-methoxy-pyridazin-4-yl)-[4-fluoro-3-(7-morpholin-4-yl-quinazolin-4-yl)phenyl]-methanol]
0.5 to 5 µM | OC(c1ccc(F)c(-c2ncnc3cc(N4CCOCC4)ccc23)c1)c1c(Cl)cncc1Cl (centres unmarked) [Example 17, (3,5-Dichloro-pyridin-4-yl)-[4-Fluoro-3-(7-morpholin-4-yl-quinazolin-4-yl)phenyl]-methanol]
< 0.5 µM | COc1cnc(Cl)c(C(O)c2ccc(F)c(-c3ncnc4cc(N5CCOCC5)ccc34)c2)c1 (centres unmarked) [Example 22, (2-Chloro-5-methoxy-pyridin-3-yl)-[4-fluoro-3-(7-morpholin-4-yl-quinazolin-4-yl)phenyl]-methanol]
< 0.5 µM | OC(c1ccc(F)c(-c2ncnc3cc(N4CCOCC4)ccc23)c1)c1ncccc1Cl (centres unmarked) [Example 42, (3-Chloro-pyridin-2-yl)-[4-fluoro-3-(7-morpholin-4-yl-quinazolin-4-yl)phenyl]-methanol]
10 to 30 µM | NCCn1nc(C(O)c2cc(-c3ncnc4cc(N5CCOCC5)ccc34)c(F)cc2Cl)ccc1=O (centres unmarked) [Example 94, 2-(2-Amino-ethyl)-6-{[2-Chloro-4-fluoro-5-(7-morpholin-4-yl-quinazolin-4-yl)phenyl]-hydroxy-methyl}-2H-pyridazin-3-one]
5 to 10 µM | OC(c1cnccn1)c1cc(-c2ncnc3cc(N4CCOCC4)ccc23)c(F)cc1Cl (centres unmarked) [Example 34, [2-Chloro-4-fluoro-5-(7-morpholin-4-yl-quinazolin-4-yl)phenyl]-pyrazin-2-ylmethanol]
< 0.5 µM | Cc1nccnc1C(O)c1ccc(F)c(-c2ncnc3cc(N4CCOCC4)ccc23)c1 (centres unmarked) [Example 78, [4-Fluoro-3-(7-morpholin-4-yl-quinazolin-4-yl)phenyl]-(3-methylpyrazin-2-yl)-methanol]

Same assay, conditions: Homo sapiens, HCT-116, cellular DNA-PK phosphorylation at serine 2056, HCT116 cells; read-out: IC50 pDNA-PK

Compound | IC50
Cn1cnc2ccnc(C(O)c3ccc(F)c(-c4ncnc5cc(N6CCOCC6)ccc45)c3)c21 (centres unmarked) [Example 461, [4-Fluoro-3-(7-morpholin-4-yl-quinazolin-4-yl)-phenyl]-(3-methyl-3H-imidazo[4,5-c]-pyridin-4-yl)methanol] | < 0.5 µM
COc1nccnc1C(O)c1cc(-c2ncnc3cc(N4CCOCC4)ccc23)ccc1Cl (centres unmarked) [Example 410, [2-Chloro-5-(7-morpholin-4-yl-quinazolin-4-yl)-phenyl]-(3-methoxy-pyrazin-2-yl)-methanol (Ena 2)] | < 0.5 µM
Cn1cnc2ncnc(C(O)c3ccc(F)c(-c4ncnc5cc(N6CCOCC6)ccc45)c3)c21 (centres unmarked) [Example 433, [4-Fluoro-3-(7-morpholin-4-yl-quinazolin-4-yl)-phenyl]-(7-methyl-7H-purin-6-yl)-methanol] | 0.5 to 5 µM

Other lines, results leading:

IC50 | Compound
0.5 to 5 µM | OC(c1ccc(F)c(-c2ncnc3cc(N4CCOCC4)ccc23)c1)c1nnc2ccccn12 (centres unmarked) [Example 399, [4-Fluoro-3-(7-morpholin-4-yl-quinazolin-4-yl)-phenyl]-[1,2,4]-triazolo[4,3-a]pyridin-3-ylmethanol]
< 0.5 µM | COc1nccnc1C(O)c1cc(-c2ncnc3cc(N4CCOCC4)ccc23)c(F)cc1F (centres unmarked) [Example 453]

Same assay, conditions: Homo sapiens, HCT-116, phospho-serine 2056 DNA-PK, bleomycin-treated HCT116 cells; class symbols A-D; read-out: IC50 pDNA-PK

Compound | IC50
OC(c1ccc(F)c(-c2ncnc3cc(C4=CCOCC4)ccc23)c1)c1nccs1 (centres unmarked) [Example 139, {3-[7-(3,6-Dihydro-2H-pyran-4-yl)-quinazolin-4-yl]-4-fluoro-phenyl}-thiazol-2-ylmethanol] | 10 to 30 µM
CC(O)(c1cncc(-c2ncnc3cc(N4CCOCC4)ccc23)c1)c1nccs1 (centres unmarked) [Example 152, 1-[5-(7-Morpholin-4-ylquinazolin-4-yl)-pyridin-3-yl]-1-thiazol-2-ylethanol] | 10 to 30 µM
OC(c1cc(F)cc(-c2ncnc3cc(N4CCOCC4)ccc23)c1)c1nccs1 (centres unmarked) [Example 169, [3-Fluoro-5-(7-morpholin-4-yl-quinazolin-4-yl)-phenyl]thiazol-2-yl-methanol] | 10 to 30 µM

Next, values leading:

IC50 | Compound
5 to 10 µM | OC(c1nccs1)c1cc(-c2ncnc3cc(N4CCOCC4)ccc23)ccc1F (centres unmarked) [Example 170, [2-Fluoro-5-(7-morpholin-4-yl-quinazolin-4-yl)-phenyl]thiazol-2-yl-methanol]
< 0.5 µM | COc1ccc([C@@H](O)c2cc(-c3ncnc4cc(N5CCOCC5)ccc34)c(F)cc2Cl)nn1 [Example 136, (S)-[2-Chloro-4-fluoro-5-(7-morpholin-4-yl-quinazolin-4-yl)-phenyl]-(6-methoxy-pyridazin-3-yl)-methanol]

Same assay, conditions: Homo sapiens, HCT-116, phospho-serine 2056 DNA-PK, bleomycin-treated HCT116 cells; read-out: IC50 pDNA-PK

IC50 | Compound
5 to 10 µM | COc1nccnc1C(C(N)=O)c1ccc(F)c(-c2ncnc3cc(N4CCOCC4)ccc23)c1 (centres unmarked) [Example 305, 2-[4-Fluoro-3-(7-morpholin-4-yl-quinazolin-4-yl)-phenyl]-2-(3-methoxy-pyrazin-2-yl)acetamide]
10 to 30 µM | OC(c1ccc(F)c(-c2ncnc3cc(N4CCOCC4)ccc23)c1)c1nccn2cnnc12 (centres unmarked) [Example 351, [4-Fluoro-3-(7-morpholin-4-yl-quinazolin-4-yl)-phenyl]-[1,2,4]-triazolo[4,3-a]-pyrazin-8-ylmethanol]
< 0.5 µM | OC(c1cc(-c2ncnc3cc(N4CCOCC4)ccc23)c(F)cc1F)c1nncc2ccoc12 (centres unmarked) [Example 336, [2,4-Difluoro-5-(7-morpholin-4-yl-quinazolin-4-yl)-phenyl]furo[2,3-d}-pyridazin-7-yl-methanol]
< 0.5 µM | Cc1nccnc1Cc1ccc(F)c(-c2ncnc3cc(N4CCOCC4)ccc23)c1 [Example 349, 4-[2-Fluoro-5-(3-methyl-pyrazin-2-ylmethyl)phenyl]-7-morpholin-4-yl-quinazoline]
0.5 to 5 µM | Cc1cnc(C(C(N)=O)c2cc(-c3ncnc4cc(N5CCOCC5)ccc34)c(F)cc2Cl)c(C)n1 (centres unmarked) [Example 301, 2-[2-Chloro-4-fluoro-5-(7-morpholin-4-yl-quinazolin-4-yl)-phenyl]-2-(3,5-dimethyl-pyrazin-2-yl)acetamide]

Compound | IC50
NC(=O)C(c1cc(-c2ncnc3cc(N4CCOCC4)ccc23)c(F)cc1Cl)c1ncnn2cccc12 (centres unmarked) [Example 309, 2-[2-Chloro-4-fluoro-5-(7-morpholin-4-yl-quinazolin-4-yl)-phenyl]-2-[3H-pyrrolo[2,1-f][1,2,4]-triazin-(4E)-ylidene]-acetamide] | 10 to 30 µM

Same assay, conditions: cellular DNA-PK phosphorylation at serine 2056, HCT116 cells; read-out: IC50 pDNA-PK

Compound | IC50
O[C@@H](c1cc(-c2ncnc3cc(N4CCOCC4)ccc23)c(F)cc1Cl)c1nccn2ccnc12 (single isomer, unassigned) [Example 396] | < 0.5 µM
COc1nccnc1C(O)c1cc(-c2ncnc3cc(N4CCOCC4)ccc23)ccc1Cl (centres unmarked) [Example 422, [2-Chloro-5-(7-morpholin-4-yl-quinazolin-4-yl)-phenyl]-(3-methoxy-pyrazin-2-yl)-methanol] | 0.5 to 5 µM

Next, values leading:

IC50 | Compound
0.5 to 5 µM | Cc1cncnc1C(C(N)=O)c1cc(-c2ncnc3cc(N4CCOCC4)ccc23)ccc1Cl (centres unmarked) [Example 407, 2-[2-Chloro-5-(7-morpholin-4-yl-quinazolin-4-yl)-phenyl]-2-(5-methyl-pyrimidin-4-yl)-acetamide]
< 0.5 µM | COc1ccc(C(O)c2cc(-c3ncnc4cc(N5CCOCC5)ccc34)ccc2Cl)nn1 (centres unmarked) [Example 460, [2-Chloro-5-(7-morpholin-4-yl-quinazolin-4-yl)-phenyl]-(6-methoxy-pyridazin-3-yl)-methanol]
< 0.5 µM | Cc1nccnc1C(O)c1cc(-c2ncnc3cc(N4CCOCC4)ccc23)ccc1Cl (centres unmarked) [Example 428, [2-Chloro-5-(7-morpholin-4-yl-quinazolin-4-yl)-phenyl]-(3-methyl-pyrazin-2-yl)-methanol]

Same assay, conditions: cellular; HCT116 cells, 10 μM bleomycin, six hours; read-out: IC50 pDNA-PK

IC50 | Compound
< 0.5 µM | Cc1nccnc1C(O)c1cc(-c2ncnc3cc(N4CCOCC4)ccc23)c(F)cc1F (centres unmarked) [Example 86, [2,4-Difluoro-5-(7-morpholin-4-yl-quinazolin-4-yl)-phenyl]-(3-methyl-pyrazin-2-yl)methanol]

Same assay, conditions: phospho-serine 2056 DNA-PK, bleomycin-treated HCT116 cells; read-out: IC50 pDNA-PK

IC50 | Compound
0.5 to 5 µM | [2H]C1([2H])OC([2H])([2H])C([2H])([2H])N(c2ccc3c(-c4cc([C@H](O)c5nccnc5C)ccc4F)ncnc3c2)C1([2H])[2H] [Example 243, (S)-[4-Fluoro-3-[7-(2,2,3,3,5,5,6,6-octadeuterio-morpholin-4-yl)quinazolin-4-yl]phenyl]-(3-methylpyrazin-2-yl)methanol]
< 0.5 µM | Cn1c(C(O)c2cc(-c3ncnc4cc(N5CCOCC5)ccc34)ccc2Cl)cccc1=O (centres unmarked) [Example 364, 6-{[2-Chloro-5-(7-morpholin-4-yl-quinazolin-4-yl)-phenyl]hydroxy-methyl}-1-methyl-1H-pyridin-2-one (Ena 1)]

Compound | IC50
COc1ccc(C(O)c2ccc(F)c(-c3ncnc4cc(N5CCOCC5)cc(F)c34)c2)nn1 (centres unmarked) [Example 260, [4-Fluoro-3-(5-fluoro-7-morpholin-4-yl-quinazolin-4-yl)-phenyl]-(6-methoxy-pyridazin-3-yl)-methanol] | < 0.5 µM
